Reference: US7858637B2, “Administration of TLR7 ligands and prodrugs thereof for treatment of infection by hepatitis C virus” (priority 2003, dated 2010)

Assay: Pharmacokinetics of isatoribine in beagle dogs after oral dosing
Conditions: both, dog, in vivo, 50 mg/kg
Protocol: The effect of a prodrug (val-isatoribine, 24) on the systemic exposure to isatoribine (21) after oral administration to beagle dogs was investigated. Isatoribine was prepared in sodium bicarbonate solution. Val-isatoribine and isatoribine were prepared as the following formulations, which were chosen to ensure solubility: Formulation 1: […] Formulation 2: […] Four male and four female adult beagle dogs weighing between 15 to 27 kg and approximately 1-2 years old were used at the beginning of the study. The animals were divided into 2 groups of 2 males and 2 females each. The test material was administered by gavage on Days 1 and 8, allowing a 7 day washout period between administrations. […] The plasma was frozen at −70° C. until analysis. The plasma was analyzed for isatoribine by an HPLC-MS/MS assay.

Nc1nc2c(sc(=O)n2[C@@H]2O[C@H](CO)[C@@H](O)[C@H]2O)c(=O)[nH]1 [Compound 21, 7-thia-8-oxoguanosine]
AUC Ratio (to isatoribine in bicarbonate solution): 1.00 | Cmax Ratio (to isatoribine in bicarbonate solution): 1.00
